Assays:
Conditions in all cases: exposure time: 72 h
FT3469 [1] = normal neural stem cell line; assay: phenotypic distance (Euclidean, principal components) from DMSO controls (arbitrary units); higher = stronger morphological change
E31 [2] = patient-derived glioblastoma stem cells of proneural subtype; assay: as above
E13 [3] = patient-derived glioblastoma stem cells of classical subtype; assay: as above
E34 [4] = patient-derived glioblastoma stem cells of proneural subtype; assay: as above
E21 [5] = patient-derived glioblastoma stem cells of mesenchymal subtype; assay: as above
E28 [6] = patient-derived glioblastoma stem cells of classical subtype; assay: as above
E57 [7] = patient-derived glioblastoma stem cells of mesenchymal subtype; assay: as above
FT3469 [8] = assay: surviving fraction (nuclei count normalised to DMSO); higher = more cells surviving (less toxic)
E31 [9] = assay: as above
E13 [10] = assay: as above
E34 [11] = assay: as above
E21 [12] = assay: as above
E28 [13] = assay: as above
E57 [14] = assay: as above
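For phenotypic distance (Euclidean, principal components) from DMSO controls in this document: cell Painting imaging in 384-well plates, CellProfiler features reduced to at least 20 principal components, Euclidean distance versus same-plate DMSO vehicle wells (0.1% v/v), median over six images per well.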
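For surviving fraction (nuclei count normalised to DMSO) in this document: nuclei counted by high-content imaging of Hoechst-stained cells in laminin-coated 384-well plates, relative to 0.1% DMSO vehicle wells, with staurosporine as cell-death control.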

C=C(C)[C@H]1Cc2c(ccc3c2O[C@@H]2COc4cc(OC)c(OC)cc4[C@@H]2C3=O)O1 [Rotenone]
Conditions | phenotypic distance | surviving fraction
E13 [3], 4.1 nM | 0.548 | –
E13 [3], 12.3 nM | 0.572 | –
E13 [3], 37 nM | 1.04 | –
E13 [3], 111.1 nM | 1.22 | –
E13 [3], 333.3 nM | 2.49 | –
E13 [3], 1000 nM | 3.77 | –
E13 [3], 3000 nM | 6.02 | –
E13 [10], 4.1 nM | – | 1.02
E13 [10], 12.3 nM | – | 0.894
E13 [10], 37 nM | – | 0.83
E13 [10], 111.1 nM | – | 0.771
E13 [10], 333.3 nM | – | 0.632
E13 [10], 1000 nM | – | 0.566
E13 [10], 3000 nM | – | 0.212
E21 [5], 4.1 nM | 0.532 | –
E21 [5], 12.3 nM | 0.585 | –
E21 [5], 37 nM | 0.921 | –
E21 [5], 111.1 nM | 1.37 | –
E21 [5], 333.3 nM | 2.24 | –
E21 [5], 1000 nM | 3.52 | –
E21 [5], 3000 nM | 7.81 | –
E21 [12], 4.1 nM | – | 0.993
E21 [12], 12.3 nM | – | 0.918
E21 [12], 37 nM | – | 0.978
E21 [12], 111.1 nM | – | 0.905
E21 [12], 333.3 nM | – | 0.822
E21 [12], 1000 nM | – | 0.511
E21 [12], 3000 nM | – | 0.147
E28 [6], 4.1 nM | 0.546 | –
E28 [6], 12.3 nM | 0.394 | –
E28 [6], 37 nM | 0.642 | –
E28 [6], 111.1 nM | 0.779 | –
E28 [6], 333.3 nM | 1.31 | –
E28 [6], 1000 nM | 2.44 | –
E28 [6], 3000 nM | 3.1 | –
E28 [13], 4.1 nM | – | 1.05
E28 [13], 12.3 nM | – | 0.989
E28 [13], 37 nM | – | 0.906
E28 [13], 111.1 nM | – | 0.904
E28 [13], 333.3 nM | – | 0.818
E28 [13], 1000 nM | – | 0.648
E28 [13], 3000 nM | – | 0.425
E31 [2], 4.1 nM | 0.668 | –
E31 [2], 12.3 nM | 0.711 | –
E31 [2], 37 nM | 2.14 | –
E31 [2], 111.1 nM | 1.02 | –
E31 [2], 333.3 nM | 1.3 | –
E31 [2], 1000 nM | 2.13 | –
E31 [2], 3000 nM | 5.49 | –
E31 [9], 4.1 nM | – | 0.905
E31 [9], 12.3 nM | – | 0.93
E31 [9], 37 nM | – | 1
E31 [9], 111.1 nM | – | 0.862
E31 [9], 333.3 nM | – | 0.672
E31 [9], 1000 nM | – | 0.385
E31 [9], 3000 nM | – | 0.135
E34 [4], 4.1 nM | 0.805 | –
E34 [4], 12.3 nM | 1 | –
E34 [4], 37 nM | 0.736 | –
E34 [4], 111.1 nM | 0.699 | –
E34 [4], 333.3 nM | 1.76 | –
E34 [4], 1000 nM | 1.95 | –
E34 [4], 3000 nM | 3.52 | –
E34 [11], 4.1 nM | – | 1.04
E34 [11], 12.3 nM | – | 1.04
E34 [11], 37 nM | – | 0.855
E34 [11], 111.1 nM | – | 0.843
E34 [11], 333.3 nM | – | 0.755
E34 [11], 1000 nM | – | 0.786
E34 [11], 3000 nM | – | 0.473
E57 [7], 4.1 nM | 0.304 | –
E57 [7], 12.3 nM | 0.356 | –
E57 [7], 37 nM | 0.67 | –
E57 [7], 111.1 nM | 0.385 | –
E57 [7], 333.3 nM | 1.23 | –
E57 [7], 1000 nM | 1.95 | –
E57 [7], 3000 nM | 6.35 | –
E57 [14], 4.1 nM | – | 1.04
E57 [14], 12.3 nM | – | 1.05
E57 [14], 37 nM | – | 0.983
E57 [14], 111.1 nM | – | 0.959
E57 [14], 333.3 nM | – | 0.941
E57 [14], 1000 nM | – | 0.821
E57 [14], 3000 nM | – | 0.188
FT3469 [1], 4.1 nM | 0.458 | –
FT3469 [1], 12.3 nM | 0.898 | –
FT3469 [1], 37 nM | 0.644 | –
FT3469 [1], 111.1 nM | 1.18 | –
FT3469 [1], 333.3 nM | 1.03 | –
FT3469 [1], 1000 nM | 2.14 | –
FT3469 [1], 3000 nM | 3.61 | –
FT3469 [8], 4.1 nM | – | 1.12
FT3469 [8], 12.3 nM | – | 0.838
FT3469 [8], 37 nM | – | 0.826
FT3469 [8], 111.1 nM | – | 0.877
FT3469 [8], 333.3 nM | – | 0.897
FT3469 [8], 1000 nM | – | 0.744
FT3469 [8], 3000 nM | – | 0.448

O=C(/C=C\n1cnc(-c2cc(C(F)(F)F)cc(C(F)(F)F)c2)n1)NNc1cnccn1 [Selinexor]
Conditions | phenotypic distance | surviving fraction
E13 [3], 4.1 nM | 1.6 | –
E13 [3], 12.3 nM | 2.09 | –
E13 [3], 37 nM | 3.06 | –
E13 [3], 111.1 nM | 3.35 | –
E13 [3], 333.3 nM | 3.49 | –
E13 [3], 1000 nM | 3.23 | –
E13 [3], 3000 nM | 4.73 | –
E13 [10], 4.1 nM | – | 0.654
E13 [10], 12.3 nM | – | 0.572
E13 [10], 37 nM | – | 0.418
E13 [10], 111.1 nM | – | 0.355
E13 [10], 333.3 nM | – | 0.384
E13 [10], 1000 nM | – | 0.31
E13 [10], 3000 nM | – | 0.242
E21 [5], 4.1 nM | 2.91 | –
E21 [5], 12.3 nM | 3.17 | –
E21 [5], 37 nM | 3.01 | –
E21 [5], 111.1 nM | 3.44 | –
E21 [5], 333.3 nM | 3.53 | –
E21 [5], 1000 nM | 3.96 | –
E21 [5], 3000 nM | 4.26 | –
E21 [12], 4.1 nM | – | 0.753
E21 [12], 12.3 nM | – | 0.729
E21 [12], 37 nM | – | 0.667
E21 [12], 111.1 nM | – | 0.572
E21 [12], 333.3 nM | – | 0.541
E21 [12], 1000 nM | – | 0.51
E21 [12], 3000 nM | – | 0.315
E28 [6], 4.1 nM | 1.34 | –
E28 [6], 12.3 nM | 1.88 | –
E28 [6], 37 nM | 2.76 | –
E28 [6], 111.1 nM | 2.65 | –
E28 [6], 333.3 nM | 2.86 | –
E28 [6], 1000 nM | 2.69 | –
E28 [6], 3000 nM | 3.06 | –
E28 [13], 4.1 nM | – | 0.643
E28 [13], 12.3 nM | – | 0.605
E28 [13], 37 nM | – | 0.441
E28 [13], 111.1 nM | – | 0.4
E28 [13], 333.3 nM | – | 0.327
E28 [13], 1000 nM | – | 0.373
E28 [13], 3000 nM | – | 0.246
E31 [2], 4.1 nM | 2.16 | –
E31 [2], 12.3 nM | 2.72 | –
E31 [2], 37 nM | 2.72 | –
E31 [2], 111.1 nM | 3.08 | –
E31 [2], 333.3 nM | 2.98 | –
E31 [2], 1000 nM | 2.55 | –
E31 [2], 3000 nM | 3.17 | –
E31 [9], 4.1 nM | – | 0.703
E31 [9], 12.3 nM | – | 0.51
E31 [9], 37 nM | – | 0.444
E31 [9], 111.1 nM | – | 0.38
E31 [9], 333.3 nM | – | 0.311
E31 [9], 1000 nM | – | 0.331
E31 [9], 3000 nM | – | 0.239
E34 [4], 4.1 nM | 1.14 | –
E34 [4], 12.3 nM | 1.28 | –
E34 [4], 37 nM | 1.6 | –
E34 [4], 111.1 nM | 1.64 | –
E34 [4], 333.3 nM | 1.71 | –
E34 [4], 1000 nM | 1.72 | –
E34 [4], 3000 nM | 2.17 | –
E34 [11], 4.1 nM | – | 0.782
E34 [11], 12.3 nM | – | 0.833
E34 [11], 37 nM | – | 0.867
E34 [11], 111.1 nM | – | 0.547
E34 [11], 333.3 nM | – | 0.582
E34 [11], 1000 nM | – | 0.569
E34 [11], 3000 nM | – | 0.582
E57 [7], 4.1 nM | 2.64 | –
E57 [7], 12.3 nM | 2.17 | –
E57 [7], 37 nM | 2.78 | –
E57 [7], 111.1 nM | 3.97 | –
E57 [7], 333.3 nM | 4.39 | –
E57 [7], 1000 nM | 5.44 | –
E57 [7], 3000 nM | 6.2 | –
E57 [14], 4.1 nM | – | 0.554
E57 [14], 12.3 nM | – | 0.554
E57 [14], 37 nM | – | 0.43
E57 [14], 111.1 nM | – | 0.286
E57 [14], 333.3 nM | – | 0.313
E57 [14], 1000 nM | – | 0.32
E57 [14], 3000 nM | – | 0.244
FT3469 [1], 4.1 nM | 1.68 | –
FT3469 [1], 12.3 nM | 2.14 | –
FT3469 [1], 37 nM | 1.85 | –
FT3469 [1], 111.1 nM | 1.78 | –
FT3469 [1], 333.3 nM | 2.12 | –
FT3469 [1], 1000 nM | 1.48 | –
FT3469 [1], 3000 nM | 1.57 | –
FT3469 [8], 4.1 nM | – | 0.614
FT3469 [8], 12.3 nM | – | 0.659
FT3469 [8], 37 nM | – | 0.616
FT3469 [8], 111.1 nM | – | 0.614
FT3469 [8], 333.3 nM | – | 0.692
FT3469 [8], 1000 nM | – | 0.556
FT3469 [8], 3000 nM | – | 0.612

Reference: the supplement of paper PMC13207355
